In US5206162A, “Process for making D-aminoacylase” (National Science Council of Republic of China, priority 1991, dated 1993):
Where two headings read alike, the source gives them in different places.

Key:
Assay type in all cases: biochemical
D-aminoacylase [1] = molecular target: T1, D-aminoacylase (Alcaligenes faecalis, UniProt Q9AGH8); test: Influence of metallic ions on D-aminoacylase activities; conditions: 1 mM metallic ion, 50 mM Tris-HCl pH 7.8, 30 minutes at 37° C., ninhydrin method
T1 sequence (Q9AGH8 1-484): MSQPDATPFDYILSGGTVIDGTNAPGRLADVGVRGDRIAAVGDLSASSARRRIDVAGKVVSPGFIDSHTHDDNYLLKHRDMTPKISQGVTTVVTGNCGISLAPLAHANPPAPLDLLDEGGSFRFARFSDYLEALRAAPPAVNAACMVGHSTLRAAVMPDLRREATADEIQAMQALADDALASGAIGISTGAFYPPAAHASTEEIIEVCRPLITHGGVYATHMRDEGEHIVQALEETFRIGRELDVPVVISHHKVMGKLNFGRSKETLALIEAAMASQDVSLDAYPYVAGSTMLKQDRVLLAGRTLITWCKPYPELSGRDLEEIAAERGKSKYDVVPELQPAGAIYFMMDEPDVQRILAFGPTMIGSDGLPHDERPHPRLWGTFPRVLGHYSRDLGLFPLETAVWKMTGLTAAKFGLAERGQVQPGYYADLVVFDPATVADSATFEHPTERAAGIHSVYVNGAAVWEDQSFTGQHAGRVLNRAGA

D-aminoacylase [2] = molecular target: T1, D-aminoacylase; test: Substrate specificity of D-aminoacylase (hydrolysis of N-acyl amino acids, ninhydrin method); conditions: for Relative Activity D-form: D-form of the substrate, N-acetyl-D-methionine = 100; for Relative Activity L-form: L-form of the substrate, relative to N-acetyl-D-methionine = 100
Excerpt: The activity of D-aminoacylase obtained by the method of this invention may be measured in accordance with Rosen method by using suitable amount of enzyme to decompose N-acetyl-D-methionine, of which the produced D-methionine may be quantitatively measured by D-amino acid oxidase or by ninhydrin method. [Note: H. Rosen, A modified ninhydrin colorimetric analysis for amino acids. Arch. Biochem. Biophys. 67:10-15 (1957)].
The activity unit of enzyme of this invention is defined herewith as the enzyme quantity required for decomposing 10 mM N-acetyl-D-methionine solution for releasing 1μ mole D-methionine per minute at 37° C.
The D-aminoacylase of this invention (hereinafter simply designated as "the acylase") may hydrolyze N-acyl-D-amino acids, but only slightly hydrolyze the N-acyl-L-amino acids.

D-aminoacylase [3] = molecular target: T1, D-aminoacylase; test: Reagents (inhibitors) influencing the D-aminoacylase activities
[4] = 1 mM inhibitor, 50 mM Tris-HCl pH 7.8, 30 minutes at 37° C., ninhydrin method, read-out: Residual activities %

Row | Compound | Residual activities % (D-aminoacylase [1]) | Relative Activity D-form (D-aminoacylase [2]) | Relative Activity L-form (D-aminoacylase [2]) | other results
1 | [Ba+2].[Cl-].[Cl-] [BaCl2] | 99% | – | – | –
2 | CC(=O)N[C@H](C(=O)O)C(C)C [N-acetyl-valine] | – | 6 | 0 | –
3 | [Cl-].[Cl-].[Mg+2] [MgCl2] | 95% | – | – | –
4 | CC(=O)N[C@@H](C)C(=O)O [N-acetyl-alanine] | – | 14 | 0.7 | –
5 | CSCC[C@@H](NC(C)=O)C(=O)O [N-acetyl-D-methionine] | – | – | – | Hydrolysis by the acylase (in words) (D-aminoacylase [2]): strongest
6 | [Cl][Fe][Cl] [FeCl2] | 60% | – | – | –
7 | [Cl][Cu][Cl] [CuCl2] | 15% | – | – | –
8 | CCN1C(=O)C=CC1=O [N-ethylmaleimide] | – | – | – | remaining activity at 1000 µM (D-aminoacylase [3]; [4]): 36%; Inhibition of the enzyme by reagent (in words) (D-aminoacylase [3]; 1 mM, 37° C., 30 minutes): inhibited
9 | [Cl][Mn][Cl] [MnCl2] | 70% | – | – | –
10 | O=CC(=O)c1ccccc1 [phenylglyoxal] | – | – | – | remaining activity at 1000 µM (D-aminoacylase [3]; [4]): 65%; Inhibition of the enzyme by reagent (in words) (D-aminoacylase [3]; 1 mM, 37° C., 30 minutes): inhibited
11 | [Cl-].[Cl-].[Co+2] [CoCl2] | 96% | – | – | –
12 | [Cl][Ni][Cl] [NiCl2] | 89% | – | – | –
13 | CC(C)[C@H](NC(=O)CCl)C(=O)O [N-chloroacetyl-valine] | – | 42 | 0.6 | –
14 | O=C(O)c1cc[c]([Hg][Cl])cc1 [p-chloromercuibenzoic acid] | – | – | – | Residual activities % (D-aminoacylase [3]; 1 mM inhibitor, 50 mM Tris-HCl pH 7.8, 30 minutes at 37° C., ninhydrin method): 0%; Inhibition of the enzyme by reagent (in words) (D-aminoacylase [3]; 1 mM, 37° C., 30 minutes): inhibited
15 | O=C(O)CN(CCN(CC(=O)O)CC(=O)O)CC(=O)O [EDTA] | – | – | – | Inhibition of the enzyme by reagent (in words) (D-aminoacylase [3]): inhibited; remaining activity at 1000 µM (D-aminoacylase [3]; pH 7.8, read-out: Residual activities %): 22%
16 | CC(=O)N[C@@H](CC(N)=O)C(=O)O [N-acetyl-asparagine] | – | 8 | 0 | –
17 | [Cl][Cd][Cl] [CdCl2] | 0% | – | – | –
18 | [Ca+2].[Cl-].[Cl-] [CaCl2] | 99% | – | – | –
19 | NC(=O)CI [iodoacetamide] | – | – | – | remaining activity at 1000 µM (D-aminoacylase [3]; [4]): 97%
20 | CC(=O)NC(CC(C)C)C(=O)O (stereo not shown) [N-acetyl-leuoine] | – | 40 | 0.4 | –
21 | CC(=O)N[C@@H](Cc1c[nH]c2ccccc12)C(=O)O [N-acetyl-tryptophan] | – | 14 | 0 | –
22 | [Cl][Hg][Cl] [HgCl2] | 0% | – | – | –
23 | CC(=O)N[C@@H](Cc1ccccc1)C(=O)O [N-acetyl-phenylalanine] | – | 80 | 0.8 | –
24 | [Cl-].[Cl-].[Sr+2] [SrCl2] | 87% | – | – | –
25 | [Cl-].[Cl-].[Zn+2] [Zncl2] | 0% | – | – | –
26 | CSCC[C@H](NC(C)=O)C(=O)O [N-acetyl-methionine] | – | 100 | 0.8 | –
27 | CC(=O)NC(C(=O)O)c1ccccc1 (stereo not shown) [N-acetyl-phenylglycine] | – | 3 | 0 | –
